Assay results published in patent publication US10093678B2, “Azaspiro derivatives as TRPM8 antagonists” (RaQualia Pharma Inc., priority 2014, dated 2018).
pIC50: −log10 of the molar value.

The compounds below were run against T1, human TRPM8 (Homo sapiens, UniProt Q7Z2W7) (assay: Menthol-induced Ca2+ influx in HEK293 cells stably expressing human TRPM8). Details: 30 microM menthol-induced Ca2+ influx, read-out: IC50 against TRPM8.
T1 construct: expressed in transfected cells; host or cells: HEK293
Format: cell-based
Protocol: Measurement of the Menthol-Induced Ca^2+ Influx in HEK293 Cells Stably Expressing Human TRPM8
A cell-based Ca^2+ influx assay using HEK293 cells stably expressing human TRPM8 is used to identify the activity of compounds.
HEK293 cells stably expressing human TRPM8 are grown in T175 flasks at 37° C. in a 5% CO2 humidified incubator to about 80% confluence. Media composition consists of Dulbecco's Modified Eagle Medium (high glucose), 10% fetal calf serum (FCS), 100 units/mLPenicillin, 100 microg/mL Streptomycin and 600 microg/mL Geneticine. At 24 hours prior to assay, cells are seeded in poly-D-lysine coated 384-well plates (BD FALCON) at a density of 30,000 cells per well in culture medium and grown overnight in 5% CO2 at 37° C. On the assay day, growth media is removed and cells are loaded with 0.5 microM Fluo4-AM (Molecular Probes) and 0.005% Pluronic F-127 dissolved in assay buffer (Hank's balanced salt solution (HBSS), 19.4 mM HEPES pH7.4, 2.5 mM Probenecid) for 1 hour at room temperature. After washing with assay buffer, the cells are preincubated with various concentrations of the compounds for 5 min. The changes in intracellular calcium concentration by addition of 30 microM menthol are monitored by the cell imaging technology by Hamamatsu Photonics Functional Drug Screening System (FDSS).
The IC50 values for compounds of the present invention are determined from 11-point dose-response studies. Curves are generated using the average of duplicate wells for each data point. Finally, the IC50 values are calculated with the best-fit dose curve determined by XLfit (ID Business Solutions Ltd.).

T1 sequence (Q7Z2W7 whole entry): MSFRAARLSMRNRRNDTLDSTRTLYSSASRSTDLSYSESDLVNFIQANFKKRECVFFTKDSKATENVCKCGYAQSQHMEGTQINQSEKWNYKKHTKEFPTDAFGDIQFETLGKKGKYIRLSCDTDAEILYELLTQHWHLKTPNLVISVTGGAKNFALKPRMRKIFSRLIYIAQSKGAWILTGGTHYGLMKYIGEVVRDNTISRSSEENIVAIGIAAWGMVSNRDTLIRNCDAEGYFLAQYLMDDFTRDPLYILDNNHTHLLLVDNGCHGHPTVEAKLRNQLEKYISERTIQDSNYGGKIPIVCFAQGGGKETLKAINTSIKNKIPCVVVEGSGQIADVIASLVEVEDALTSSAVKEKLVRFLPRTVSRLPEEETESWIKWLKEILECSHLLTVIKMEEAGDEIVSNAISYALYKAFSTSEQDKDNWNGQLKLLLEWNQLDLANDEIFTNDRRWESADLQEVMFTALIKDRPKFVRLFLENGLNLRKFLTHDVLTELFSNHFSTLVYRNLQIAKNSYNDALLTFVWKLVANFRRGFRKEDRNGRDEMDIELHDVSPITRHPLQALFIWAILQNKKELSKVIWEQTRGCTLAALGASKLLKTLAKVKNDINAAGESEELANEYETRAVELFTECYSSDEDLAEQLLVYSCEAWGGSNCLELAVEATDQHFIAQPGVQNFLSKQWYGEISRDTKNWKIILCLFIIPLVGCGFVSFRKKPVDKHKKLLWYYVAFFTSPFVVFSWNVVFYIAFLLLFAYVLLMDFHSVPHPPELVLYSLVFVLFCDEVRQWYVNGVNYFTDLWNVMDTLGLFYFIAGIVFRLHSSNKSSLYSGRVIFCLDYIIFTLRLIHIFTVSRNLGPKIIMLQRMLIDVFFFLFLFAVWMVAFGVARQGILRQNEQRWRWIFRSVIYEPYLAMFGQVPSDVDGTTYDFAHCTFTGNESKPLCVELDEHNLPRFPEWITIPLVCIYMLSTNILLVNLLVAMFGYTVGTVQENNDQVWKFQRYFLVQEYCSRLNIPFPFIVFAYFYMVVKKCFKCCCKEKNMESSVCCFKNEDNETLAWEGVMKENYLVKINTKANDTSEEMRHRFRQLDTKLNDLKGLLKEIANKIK

Compound | pIC50
NCc1nc2ccccc2n1-c1ccc(C(=O)CN2C(=O)NC3(CCC(F)(F)CC3)C2=O)cc1 [Example 5-16, 3-(2-(4-(2-(aminomethyl)-1H-benzo[d]imidazol-1-yl)phenyl)-2-oxoethyl)-8,8-difluoro-1,3-diazaspiro[4.5]decane-2,4-dione] | > 6.30
O=C(CN1C(=O)NC2(CCC(F)(F)CC2)C1=O)c1ccc(-c2cccnc2N2CC(O)C2)cc1 [Example 6-48] | > 6.30
O=C(CN1C(=O)NC2(CCC(F)(F)CC2)C1=O)c1ccc(-c2nccc3cnccc23)cc1 [Example 6-37] | > 7.00
Cc1cnc(C)c(-c2ccc(C(=O)CN3C(=O)NC4(CCCCC4)C3=O)cc2)n1 [Example 7-4] | > 7.00
Cc1ccc2nc(C)n(-c3ccc(C(=O)CN4C(=O)NC5(CCC(F)(F)CC5)C4=O)cc3)c2n1 [Example 5-27] | > 8.00
O=C(CN1C(=O)NC2(CCC(F)(F)CC2)C1=O)c1ccc(-c2nccnc2CO)cc1 [Example 6-6] | > 8.00
COc1cncc(-c2ccc(C(=O)CN3C(=O)NC4(CCC(F)(F)CC4)C3=O)cc2)c1 [Example 6-90] | > 6.30
COc1cc(C(=O)CN2C(=O)NC3(CCC(F)(F)CC3)C2=O)ccc1-c1cccc(F)c1 [Example 5-4] | > 6.30
O=C(CN1C(=O)NC2(CCC(F)(F)CC2)C1=O)c1ccc(Sc2ncccn2)cc1 [Example 5-39] | > 7.00
Cc1ccsc1-c1ccc(C(=O)CN2C(=O)NC3(CCC(F)(F)CC3)C2=O)cc1 [Example 6-29] | > 7.00
O=C(CN1C(=O)NC2(CCC(F)(F)CC2)C1=O)c1ccc(-c2nccc3ccncc23)cc1 [Example 6-44] | > 7.00
Cc1c(C(=O)CN2C(=O)NC3(CCC(F)(F)CC3)C2=O)nn(C)c1-c1ccccc1 [Example 4-1] | > 7.00
Nc1cnccc1-c1ccc(C(=O)CN2C(=O)NC3(CCC(F)(F)CC3)C2=O)cc1 [Example 6-113] | > 6.30

Further lines, results first:

pIC50 | Compound
> 6.30 | Cc1ncccc1-c1ccc(C(=O)CN2CC3(CCC(F)(F)CC3)OC2=O)cc1 [Example 13-56]
> 7.00 | O=C(CN1C(=O)NC2(CCC(F)(F)CC2)C1=O)c1ccc(-c2cccc3[nH]ncc23)nc1 [Example 9-14]
> 7.00 | N#Cc1ccccc1-c1ccc(C(=O)CN2C(=O)NC3(CCCCC3)C2=O)cn1 [Example 9-8]
> 8.00 | O=C(CN1C(=O)NC2(CCC(F)(F)CC2)C1=O)c1ccc(-c2cncc3ccccc23)cc1 [Example 13-37]
> 6.30 | Cc1ccc2nc(CN3CCC3)n(-c3ccc(C(=O)CN4C(=O)NC5(CCC(F)(F)CC5)C4=O)cc3)c2n1 [Example 25-4]
> 8.00 | Cc1ncccc1-c1cnc(C(=O)CN2C(=O)NC3(CCC(F)(F)CC3)C2=O)cn1 [Example 12-1]
> 7.00 | Cc1cc(C(=O)CN2C(=O)NC3(CCC(F)(F)CC3)C2=O)ccc1-c1ccccc1 [Example 13-14]
> 7.00 | Cc1cc(C(=O)CN2C(=O)NC3(CCC(F)(F)CC3)C2=O)sc1-c1cccnc1 [Example 14-7]
> 7.00 | Cn1c(=O)n(-c2ccc(C(=O)CN3C(=O)NC4(CCC(F)(F)CC4)C3=O)cc2)c2ccccc21 [Example 19-23]
> 7.00 | Cc1cc(C(=O)CN2C(=O)NC3(CCC(F)(F)CC3)C2=O)ccc1-c1ccccc1C#N [Example 13-9]
> 7.00 | N#Cc1cccc(Oc2ccc(C(=O)CN3C(=O)NC4(CCC(F)(F)CC4)C3=O)cc2)n1 [Example 21-5]
> 8.00 | Cc1ccccc1-c1ccc(C(=O)CN2C(=O)NC3(CCC(F)(F)CC3)C2=O)cn1 [Example 9-11]
> 7.00 | Cc1c(C(=O)CN2C(=O)NC3(CCC(F)(F)CC3)C2=O)cn(C)c1-c1cccc(C#N)c1 [Example 16-22]
> 7.00 | Cc1cc(C(=O)CN2C(=O)NC3(CCC(F)(F)CC3)C2=O)sc1-c1cncc(F)c1 [Example 14-17]
> 7.00 | O=C(CN1C(=O)NC2(CCC(F)(F)CC2)C1=O)c1ccc(-c2ccnc3ccccc23)cc1 [Example 13-43]
> 8.00 | COc1nc2ccc(C)nc2n1-c1ccc(C(=O)CN2C(=O)NC3(CCC(F)(F)CC3)C2=O)cc1 [Example 26-3]
